The results in this text go back to US8741849B2, “Kinase inhibitors and uses thereof” (priority 2007, dated 2014).

One experiment addresses T1, PKG1α (h) (Homo sapiens, UniProt Q13976).
T1 construct: purchased Upstate (Millipore) KinaseProfiler service
T1 sequence (Q13976 1-671): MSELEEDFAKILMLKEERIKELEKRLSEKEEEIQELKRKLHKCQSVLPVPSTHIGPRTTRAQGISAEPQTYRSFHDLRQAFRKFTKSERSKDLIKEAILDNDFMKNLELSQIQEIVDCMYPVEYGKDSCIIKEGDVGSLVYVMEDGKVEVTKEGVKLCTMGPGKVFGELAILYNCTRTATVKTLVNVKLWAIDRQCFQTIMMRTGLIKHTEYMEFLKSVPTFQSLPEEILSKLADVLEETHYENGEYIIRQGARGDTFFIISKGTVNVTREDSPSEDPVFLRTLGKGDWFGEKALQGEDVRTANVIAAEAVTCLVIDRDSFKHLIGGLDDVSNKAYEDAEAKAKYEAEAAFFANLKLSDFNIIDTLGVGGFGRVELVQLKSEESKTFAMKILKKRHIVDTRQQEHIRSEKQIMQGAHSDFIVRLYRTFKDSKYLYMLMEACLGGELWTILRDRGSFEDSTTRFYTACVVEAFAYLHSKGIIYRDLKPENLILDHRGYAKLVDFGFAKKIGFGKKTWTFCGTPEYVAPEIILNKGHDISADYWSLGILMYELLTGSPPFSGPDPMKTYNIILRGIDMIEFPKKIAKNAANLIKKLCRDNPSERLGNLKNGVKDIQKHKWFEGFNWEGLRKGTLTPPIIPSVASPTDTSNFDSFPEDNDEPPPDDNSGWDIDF
Briefly: kinase profiler assay (radiometric). The class given is biochemical. As to conditions: @ = 30 μm peptide; less than 100 = kinase inhibition, greater than 100 = stimulation. From the text: (§1) KIP peptides […] [SEQ ID NO: 142], […] [SEQ ID NO: 173], and […] [SEQ ID NO: 163] were utilized to profile a variety of different kinases. The kinase profiler assay services provided by Upstate, a part of Millipore Corporation (Billerica, Mass.), were utilized to conduct the kinase profiles. The kinase profiler assays, which are radiometric, are based on measuring the amount of radioactive transfer from an ATP (y-^33P-ATP) to a substrate peptide using known concentrations of kinase enzyme, inhibitor, ATP, and buffer at defined time points and temperatures. Details on the reaction conditions for each kinase are available at www.millipore.com/drugdiscovery/dd3/KinaseProfiler. […] ROCK-1(h) (5-10 mU) was incubated with 8 mM MOPS pH 7.0, 0.2 mM EDTA, 30 i.IM of the peptide […] [SEQ ID NO: 189], 10 mM Mg acetate and y-^33P-ATP (specific activity approximately 500 cpm/pmol, concentration as required) in a final reaction volume of 25 pl. The reaction was initiated by the addition of the MgATP mixture in the absence and presence of inhibitor compounds. After incubation for 40 minutes at room temperature, the reaction was stopped by the addition of 5) 11 of a 3% phosphoric acid solution. 10 pl of the reaction mixture then was spotted onto a P30 filtermat. The filtermat was washed three times for 5 minutes in 75 mM phosphoric acid, once in methanol, dried and counted by scintillation counting. Where the kinase is uninhibited, the kinase phosphorylates a positively charged substrate with radioactive ATP, which then binds to a negatively charged filter membrane. Scintillation counts (radioactivity) directly correlate with kinase activity. […] All profile data less than 100 indicate kinase inhibition while data greater than 100 indicate kinase stimulation.

The target in a further experiment is T2, PKC β 1 (h) (Homo sapiens, UniProt P05771).
T2 construct: purchased Upstate (Millipore) KinaseProfiler service
T2 sequence (P05771 whole entry): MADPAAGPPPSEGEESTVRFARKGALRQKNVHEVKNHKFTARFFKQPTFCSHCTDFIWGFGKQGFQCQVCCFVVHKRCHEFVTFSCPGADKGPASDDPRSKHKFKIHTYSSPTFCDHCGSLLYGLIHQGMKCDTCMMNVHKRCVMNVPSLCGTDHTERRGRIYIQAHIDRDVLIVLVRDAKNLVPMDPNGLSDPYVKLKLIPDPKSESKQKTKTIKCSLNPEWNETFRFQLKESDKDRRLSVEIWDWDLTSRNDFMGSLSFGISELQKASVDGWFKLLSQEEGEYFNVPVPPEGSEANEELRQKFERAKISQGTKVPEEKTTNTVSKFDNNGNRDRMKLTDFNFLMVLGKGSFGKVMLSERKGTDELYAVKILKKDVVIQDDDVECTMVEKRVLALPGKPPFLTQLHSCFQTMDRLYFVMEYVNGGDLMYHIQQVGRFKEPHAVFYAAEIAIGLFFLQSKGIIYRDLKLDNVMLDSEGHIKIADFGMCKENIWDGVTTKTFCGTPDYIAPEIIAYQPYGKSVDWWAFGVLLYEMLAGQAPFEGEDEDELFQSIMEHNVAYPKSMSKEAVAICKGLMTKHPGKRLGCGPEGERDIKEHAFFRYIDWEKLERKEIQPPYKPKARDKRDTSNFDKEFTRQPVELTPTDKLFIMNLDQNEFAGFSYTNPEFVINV
Briefly: kinase profiler assay (radiometric). The settings on record: @ = 30 μm peptide; less than 100 = kinase inhibition, greater than 100 = stimulation. The class given is biochemical.
Excerpt: as §1

Experiment [1] deals with PC3 prostate cancer cells. Briefly: Toxicity testing on cancer cell lines (MTT). The class given is cell-based. As to conditions: 72 hours, n=4, read-out: Cell Line IC50, PC3. As for the experimental part: (§2) The seven cell lines were: estrogen dependent MCF-7 breast cancer cells, non estrogen dependent MDA 231 breast cancer cells, SF 539 central nervous system cancer cells, HT29 colon cancer cells, Paca 2 pancreatic cancer cells, PC3 prostate cancer cells, and A549 lung cancer cells. For each cell line, exponentially growing cells were trypsinized and seeded into individual wells of a 96-well plate. Cells were maintained in a humidified, 5% CO2 incubator at 37° C. for 24 hours. The next day, fresh media was added along with 1 μl of a stock solution of peptide to give final peptide concentrations of 0.3 μM, 1 μM, 3 μM, 10 μM, 30 μM, and 100 μM (n=4). Doxorubicin was tested as a positive control. After incubating the cells for 72 hours, to each well was added 20 μl of 0.5% MTT {3-([…])-2,5 diphenyl tetrazolium bromide} solution. The plates then were incubated for an additional 4 hours, at which time the absorbance at 570 nm was measured for each well using a microplate reader. The absorbance was plotted as function of peptide concentration, and IC50 values were calculated for each peptide for each cell line.

For experiment [2], the system named is estrogen dependent MCF-7 breast cancer cells. Briefly: Toxicity testing on cancer cell lines (MTT). The class given is cell-based. As to conditions: 72 hours, n=4, read-out: Cell Line IC50, MCF-7. As for the experimental part:
as §2

In experiment [3] the test system is SF 539 central nervous system cancer cells. As to the kind of experiment: Toxicity testing on cancer cell lines (MTT). The class given is cell-based. The settings on record: 72 hours, n=4, read-out: Cell Line IC50, SF 539. On the procedure:
as §2

Experiment [4] concerns Paca 2 pancreatic cancer cells. As to the kind of experiment: Toxicity testing on cancer cell lines (MTT). The class given is cell-based. As to conditions: 72 hours, n=4, read-out: Cell Line IC50, Paca 2. As for the experimental part:
as §2

Another experiment deals with A549 lung cancer cells. Briefly: Toxicity testing on cancer cell lines (MTT). The class given is cell-based. The settings on record: 72 hours, n=4, read-out: Cell Line IC50, A549. On the procedure: as §2
Experiment [5] has as its system non estrogen dependent MDA 231 breast cancer cells. As to the kind of experiment: Toxicity testing on cancer cell lines (MTT). The class given is cell-based. As to conditions: 72 hours, n=4, read-out: Cell Line IC50, MDA 231. As for the experimental part:
as §2

For the next experiment, the system named is HT29 colon cancer cells. Briefly: Toxicity testing on cancer cell lines (MTT). The class given is cell-based. The settings on record: 72 hours, n=4, read-out: Cell Line IC50, HT29. On the procedure: as §2
Experiment [6] concerns MCF-7 breast cancer cells. As to the kind of experiment: Evaluation of apoptosis (Hoescht, Annexin V, propidium iodide staining). The class given is cell-based. As to conditions: MCF-7 cells, 24 hours, 3 μM or 10 μM. As for the experimental part:
MCF-7 breast cancer cells were seeded in individual wells of a 96-well plate and were maintained for 24 hours in a humidified, 5% CO2 incubator at 37° C. The next day, fresh media was added along with 1 μl of a stock solution of KIP peptide […] [SEQ ID NO: 166] to give a final concentration of 3 μM or 10 μM (n=4). After incubating the cells for 24 hours, cells were treated with Hoescht dye for nuclear staining, propidium iodide to stain for DNA from necrotic cells, and Annexin V to visualize apoptotic cells.

WLRRIKAWLRRIKALNRQLGVAA: the “Profile-1, PKG1α (h)” value with PKG1α (h) came to 16. Further, the “Profile-1, PKC β 1 (h)” value with PKC β 1 (h) is reported as 8.

By IC50 is commonly meant the concentration that gives 50% inhibition. Regarding `CC[C@H](C)[C@H](NC(=O)[C@H](CCCCN)NC(=O)[C@H](CCCCN)NC(=O)[C@H](CC(C)C)NC(=O)[C@H](Cc1c[nH]c2ccccc12)NC(=O)[C@H](C)NC(=O)[C@H](CCCCN)NC(=O)[C@@H](NC(=O)[C@H](CCCNC(=N)N)NC(=O)[C@H](CCCNC(=N)N)NC(=O)[C@@H](N)Cc1c[nH]cn1)[C@@H](C)CC)C(=O)N[C@@H](CCCCN)C(=O)N[C@@H](C)C(=O)N[C@@H](CC(C)C)C(=O)N[C@@H](C)C(=O)N[C@@H](CCCNC(=N)N)C(=O)N[C@@H](CCC(N)=O)C(=O)N[C@@H](CC(C)C)C(=O)NCC(=O)N[C@H](C(=O)N[C@@H](C)C(=O)N[C@@H](C)C(=O)O)C(C)C` [Peptide 1], the IC50 in experiment [1] was found to be 6 µM; in [2], 1.6 µM; in [3], 4.3 µM; in experiment [4], 9 µM; in the experiment with A549 lung cancer cells it was 8.7 µM; in experiment [5], 9.3 µM. Further, in the experiment with HT29 colon cancer cells, the IC50 was 6.7 µM. For the same compound, the “Annexin V staining relative to propidium iodide staining (apoptosis)” value in experiment [6] is given as “annexin V staining was much more intense than propidium iodide staining”.
